Data reported in patent US10538555B2, “Macrocyclic inhibitors of the PD-1/PD-L1 and CD80(B7-1)/PD-L1 protein/protein interactions” (BRISTOL-MYERS SQUIBB COMPANY, priority 2014, dated 2020).
“And” between values parts separate entries of the source, which are not always exact repeats. Identical values can stand only once. *1 amine or outer side, *2 acyl side, *3 side chain or, on linkers, in order; H or OH if unused. Where a SMILES comes first, the peptide text is derived from it. Bridges are numbered along the chain shown (N, C = ends). [ ]: non-standard residue; d: D form. ξ: configuration not given here. Trp(1-CH2COOH) = N[C@@H](Cc1cn(CC(=O)O)c2ccccc12)C(=O)O; Phe(3,4,5-F3) = N[C@@H](Cc1cc(F)c(F)c(F)c1)C(=O)O; Phe(3,4-F2) = N[C@@H](Cc1ccc(F)c(F)c1)C(=O)O; Pro(4R-NH2) = N[C@H]1CN[C@H](C(=O)O)C1; d(cisHyp) = O=C(O)[C@H]1C[C@@H](O)CN1; Bta = N[C@@H](Cc1csc2ccccc12)C(=O)O; Hyp = O=C(O)[C@@H]1C[C@@H](O)CN1; NMeF = CN[C@@H](Cc1ccccc1)C(=O)O; X1 = O=C([C@H]1COCCN1[*:1])[*:2]; dPip(4-aza) = O=C(O)[C@H]1CNCCN1; dHyp = O=C(O)[C@H]1C[C@H](O)CN1; NMeNle = CCCC[C@H](NC)C(=O)O; Pip = O=C(O)[C@@H]1CCCCN1; hSer = N[C@@H](CCO)C(=O)O; NMeA = CN[C@@H](C)C(=O)O; Orn = NCCC[C@H](N)C(=O)O; dThz = O=C(O)[C@H]1CSCN1; Dab = NCC[C@H](N)C(=O)O; Dap = NC[C@H](N)C(=O)O; ξC = NC(CS)C(=O)O

Target: T1, Human PD-L1/PD-1 (Homo sapiens, UniProt Q9NZQ7)
T1 construct: TVMV protease cleavage site (C); made in house; host or cells: HEK293T cells
T1 sequence (Q9NZQ7 with tags, fused parts or gaps): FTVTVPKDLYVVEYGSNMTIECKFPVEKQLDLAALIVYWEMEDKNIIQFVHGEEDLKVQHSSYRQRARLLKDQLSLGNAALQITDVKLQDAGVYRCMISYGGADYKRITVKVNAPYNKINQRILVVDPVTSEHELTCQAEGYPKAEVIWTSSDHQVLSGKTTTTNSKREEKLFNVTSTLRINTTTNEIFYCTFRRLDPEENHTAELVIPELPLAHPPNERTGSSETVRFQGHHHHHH
Assay: HTRF Human PD-L1/PD-1 binding assay (PD-1-Ig/PD-L1-His)
Conditions: PD-L1-His 10 nM, PD-1-Ig 20 nM; class symbol; read-out: HTRF Human PD-L1/PD-1 Binding Assay IC50 Range
Method in brief: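 Inhibitors were preincubated 15 min with human PD-L1(18-239)-His (10 nM final), then PD-1(25-167)-Ig (20 nM final) was added for 15 min in dPBS/0.1% BSA/0.05% Tween-20. Eu-cryptate anti-Ig (1 nM) and APC anti-His (20 nM) were added; 665/620 nm ratio read after 30 min.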

Row | Structure (SMILES) | IC50
1 | CCCC[C@H]1C(=O)N(C)[C@@H](CCCC)C(=O)N[C@@H](CCCCN)C(=O)N[C@H](C(=O)NCC(N)=O)CSCC(=O)N[C@@H](Cc2ccc(O)cc2)C(=O)N(C)[C@@H](C)C(=O)N[C@@H](CC(=O)O)C(=O)N2CCC[C@H]2C(=O)N[C@@H](Cc2c[nH]cn2)C(=O)N[C@@H](CC(C)C)C(=O)N2C[C@H](O)C[C@H]2C(=O)N[C@@H](Cc2c[nH]c3ccccc23)C(=O)N[C@@H](CO)C(=O)N[C@@H](Cc2c[nH]c3ccccc23)C(=O)N1C [Example 11002] ({CH2CO}-Y[NMeA]DPHL[Hyp]WSW[NMeNle][NMeNle]KCG-NH2; thioether N-14) | 1 to 9.9 nM
2 | CCCC[C@H]1C(=O)N(C)[C@@H](CCCC)C(=O)N[C@@H](CCCN)C(=O)N[C@H](C(=O)NCC(N)=O)CSCC(=O)N[C@@H](Cc2ccc(OC)cc2)C(=O)N(C)[C@@H](C)C(=O)N[C@@H](CC(N)=O)C(=O)N2CCC[C@H]2C(=O)N[C@@H](CN)C(=O)N[C@@H](CCC(=O)O)C(=O)N2C[C@H](O)C[C@H]2C(=O)N[C@@H](Cc2c[nH]c3ccccc23)C(=O)N[C@@H](CCN)C(=O)N[C@@H](Cc2c[nH]c3ccccc23)C(=O)N1C [Example 7091] ({CH2CO}-Y(Me)[NMeA]NP[Dap]E[Hyp]W[Dab]W[NMeNle][NMeNle][Orn]CG-NH2; thioether N-14) | 1 to 9.9 nM
3 | CCCC[C@H]1C(=O)N(C)[C@@H](CCCC)C(=O)N[C@@H](CC(C)C)C(=O)N[C@H](C(=O)NCC(N)=O)CSCC(=O)N[C@@H](Cc2ccc(O)cc2)C(=O)N(C)[C@@H](C)C(=O)N[C@@H](CC(N)=O)C(=O)N2CCC[C@H]2C(=O)N[C@@H](CO)C(=O)N[C@@H](CCC(=O)O)C(=O)N2C[C@H](O)C[C@H]2C(=O)N[C@@H](Cc2c[nH]c3ccccc23)C(=O)N[C@@H](CCN)C(=O)N[C@@H](Cc2cn(CC(=O)O)c3ccccc23)C(=O)N1C [Example 6266] ({CH2CO}-Y[NMeA]NPSE[Hyp]W[Dab][Trp(1-CH2COOH)][NMeNle][NMeNle]LCG-NH2; thioether N-14) | 10 to 99.9 nM
4 | CCCC[C@H]1C(=O)N(C)[C@@H](CCCC)C(=O)N[C@@H](CCC(=O)O)C(=O)N[C@H](C(=O)NCC(N)=O)CSCC(=O)N[C@@H](Cc2ccc(O)cc2)C(=O)N(C)[C@@H](C)C(=O)N[C@@H](CC(=O)O)C(=O)N2CCC[C@H]2C(=O)N[C@@H](Cc2cnc[nH]2)C(=O)N[C@@H](CCC(N)=O)C(=O)N2C[C@H](O)C[C@H]2C(=O)N[C@@H](Cc2c[nH]c3ccccc23)C(=O)N[C@@H](CO)C(=O)N[C@@H](Cc2cn(CC(=O)O)c3ccccc23)C(=O)N1C [Example 6335] ({CH2CO}-Y[NMeA]DPHQ[Hyp]WS[Trp(1-CH2COOH)][NMeNle][NMeNle]ECG-NH2; thioether N-14) | 1 to 9.9 nM
5 | CCCC[C@H]1C(=O)N(C)[C@@H](CCCC)C(=O)N[C@@H](CCC(=O)O)C(=O)N[C@H](C(=O)NCC(N)=O)CSCC(=O)N[C@@H](Cc2ccc(OC)cc2)C(=O)N(C)[C@@H](C)C(=O)N[C@@H](CCN)C(=O)N2CCC[C@H]2C(=O)N[C@@H](Cc2cnc[nH]2)C(=O)N[C@@H](CCC(=O)O)C(=O)N2C[C@H](O)C[C@H]2C(=O)N[C@@H](Cc2c[nH]c3ccccc23)C(=O)N[C@@H](CC(=O)O)C(=O)N[C@@H](Cc2c[nH]c3ccccc23)C(=O)N1C [Example 7132] ({CH2CO}-Y(Me)[NMeA][Dab]PHE[Hyp]WDW[NMeNle][NMeNle]ECG-NH2; thioether N-14) | 100 to 990 nM and 10 to 99.9 nM
6 | CCCC[C@H]1C(=O)N(C)[C@@H](CCCC)C(=O)N[C@@H](CCC(=O)O)C(=O)NC(C(=O)NCC(N)=O)CSCC(=O)N[C@@H](Cc2ccc(O)cc2)C(=O)N(C)[C@@H](C)C(=O)N[C@@H](CC(N)=O)C(=O)N2CCC[C@H]2C(=O)N[C@@H](Cc2c[nH]cn2)C(=O)N[C@@H](CC(N)=O)C(=O)N2CCC[C@H]2C(=O)N[C@@H](Cc2c[nH]c3ccccc23)C(=O)N[C@@H](CCN)C(=O)N[C@@H](Cc2c[nH]c3ccccc23)C(=O)N1C (stereo partly drawn) [Example 9182] ({CH2CO}-Y[NMeA]NPHNPW[Dab]W[NMeNle][NMeNle]E[ξC]G-NH2; thioether N-14) | 1 to 9.9 nM
7 | CCCC[C@H]1C(=O)N(C)[C@@H](CCCC)C(=O)N[C@@H](CCC(=O)O)C(=O)N[C@H](C(=O)NCC(N)=O)CSCC(=O)N[C@@H](Cc2ccc(O)cc2)C(=O)N(C)[C@@H](C)C(=O)N[C@@H](CC(=O)O)C(=O)N2CCC[C@H]2C(=O)N[C@@H](Cc2c[nH]cn2)C(=O)N[C@@H](CCCCNC(C)=O)C(=O)N2C[C@H](O)C[C@H]2C(=O)N[C@@H](Cc2c[nH]c3ccccc23)C(=O)N[C@@H](CO)C(=O)N[C@@H](Cc2c[nH]c3ccccc23)C(=O)N1C [Example 5255] ({CH2CO}-Y[NMeA]DPHK(Ac)[Hyp]WSW[NMeNle][NMeNle]ECG-NH2; thioether N-14) | 1 to 9.9 nM
8 | CCCC[C@H]1C(=O)N2CCC[C@@H]2C(=O)N[C@@H](CC(=O)O)C(=O)N[C@@H](C(C)C)C(=O)N(C)[C@@H](Cc2ccccc2)C(=O)N[C@@H](Cc2ccc(O)cc2)C(=O)N2CSC[C@@H]2C(=O)N[C@@H](Cc2c[nH]c3ccccc23)C(=O)N[C@@H](Cc2ccc(O)cc2)C(=O)N[C@@H](CC(C)C)C(=O)N[C@H](C(=O)NCC(N)=O)CSCC(=O)N[C@@H](Cc2ccccc2)C(=O)N(C)[C@@H](Cc2ccccc2)C(=O)N1C [Example 10068] ({CH2CO}-F[NMeF][NMeNle][dP]DV[NMeF]Y[dThz]WYLCG-NH2; thioether N-13) | 1 to 9.9 nM
9 | CCCC[C@H]1C(=O)N(C)[C@@H](CCCC)C(=O)N[C@@H](CC(C)C)C(=O)N[C@H](C(N)=O)CSCC(=O)N[C@@H](Cc2ccc(O)cc2)C(=O)N(C)[C@@H](C)C(=O)N[C@@H](CC(N)=O)C(=O)N2CCC[C@H]2C(=O)N[C@@H](CN)C(=O)N[C@@H](CC(C)C)C(=O)N2C[C@H](O)C[C@H]2C(=O)N[C@@H](Cc2c[nH]c3ccccc23)C(=O)N[C@@H](CO)C(=O)N[C@@H](Cc2cn(CC(=O)O)c3ccccc23)C(=O)N1C [Example 6180] ({CH2CO}-Y[NMeA]NP[Dap]L[Hyp]WS[Trp(1-CH2COOH)][NMeNle][NMeNle]LC-NH2; thioether N-14) | 1 to 9.9 nM
10 | CCCC[C@H]1C(=O)N2C[C@@H](O)C[C@@H]2C(=O)N[C@@H](CC(=O)O)C(=O)N[C@@H](C(C)C)C(=O)N(C)[C@@H](Cc2ccccc2)C(=O)N[C@@H](Cc2ccc(O)cc2)C(=O)N2C[C@@H](O)C[C@@H]2C(=O)N[C@@H](Cc2c[nH]c3ccccc23)C(=O)N[C@@H](Cc2ccc(O)cc2)C(=O)N[C@@H](CCCN)C(=O)N[C@H](C(=O)NCC(N)=O)CSCC(=O)N[C@@H](Cc2ccc(F)c(F)c2)C(=O)N(C)[C@@H](Cc2ccccc2)C(=O)N1C [Example 9231] ({CH2CO}-[Phe(3,4-F2)][NMeF][NMeNle][dHyp]DV[NMeF]Y[dHyp]WY[Orn]CG-NH2; thioether N-13) | 1 to 9.9 nM
11 | CCCC[C@H]1C(=O)N2C[C@H](O)C[C@@H]2C(=O)N[C@@H](CC(=O)O)C(=O)N[C@@H](C(C)C)C(=O)N(C)[C@@H](Cc2ccccc2)C(=O)N[C@@H](CCC(=O)O)C(=O)N2CCNC[C@@H]2C(=O)N[C@@H](Cc2c[nH]c3ccccc23)C(=O)N[C@@H](Cc2ccc(O)cc2)C(=O)N[C@@H](CCO)C(=O)N[C@H](C(=O)NCC(N)=O)CSCC(=O)N[C@@H](Cc2cc(F)c(F)c(F)c2)C(=O)N(C)[C@@H](Cc2ccccc2)C(=O)N1C [Example 10165] ({CH2CO}-[Phe(3,4,5-F3)][NMeF][NMeNle][d(cisHyp)]DV[NMeF]E[dPip(4-aza)]WY[hSer]CG-NH2; thioether N-13) | 1 to 9.9 nM
12 | CCCC[C@H]1C(=O)N(C)[C@@H](CCCC)C(=O)N[C@@H](CCC(=O)O)C(=O)N[C@H](C(=O)NCC(N)=O)CSCC(=O)N[C@@H](Cc2ccc(O)cc2)C(=O)N(C)[C@@H](C)C(=O)N[C@@H](CC(=O)O)C(=O)N2CCC[C@H]2C(=O)N[C@@H](CN)C(=O)N[C@@H](CCC(=O)O)C(=O)N2C[C@H](O)C[C@H]2C(=O)N[C@@H](Cc2c[nH]c3ccccc23)C(=O)N[C@@H](CO)C(=O)N[C@@H](Cc2c[nH]c3ccccc23)C(=O)N1C [Example 5170] ({CH2CO}-Y[NMeA]DP[Dap]E[Hyp]WSW[NMeNle][NMeNle]ECG-NH2; thioether N-14) | 1 to 9.9 nM
13 | CCCC[C@H]1C(=O)N(C)[C@@H](CCCC)C(=O)N[C@@H](CC(C)C)C(=O)N[C@H](C(=O)NCC(N)=O)CSCC(=O)N[C@@H](Cc2ccc(O)cc2)C(=O)N2CCCC[C@H]2C(=O)N[C@@H](CC(=O)O)C(=O)N2CCC[C@H]2C(=O)N[C@@H](Cc2cnc[nH]2)C(=O)N[C@@H](CCC(N)=O)C(=O)N2C[C@H](O)C[C@H]2C(=O)N[C@@H](Cc2c[nH]c3ccccc23)C(=O)N[C@@H](CO)C(=O)N[C@@H](Cc2csc3ccccc23)C(=O)N1C [Example 1511] ({CH2CO}-Y[Pip]DPHQ[Hyp]WS[Bta][NMeNle][NMeNle]LCG-NH2; thioether N-14) | 1 to 9.9 nM
14 | CCCC[C@H]1C(=O)N2C[C@H](O)C[C@@H]2C(=O)N2C[C@H](N)C[C@H]2C(=O)N[C@@H](C(C)C)C(=O)N(C)[C@@H](Cc2ccccc2)C(=O)N[C@@H](CCC(=O)O)C(=O)N2CCOC[C@@H]2C(=O)N[C@@H](Cc2c[nH]c3ccccc23)C(=O)N[C@@H](Cc2ccc(O)cc2)C(=O)N[C@@H](CC(C)C)C(=O)N[C@H](C(=O)NCC(N)=O)CSCC(=O)N[C@@H](Cc2cc(F)c(F)c(F)c2)C(=O)N(C)[C@@H](Cc2ccccc2)C(=O)N1C [Example 3216] ({CH2CO}-[Phe(3,4,5-F3)][NMeF][NMeNle][d(cisHyp)][Pro(4R-NH2)]V[NMeF]E[X1]WYLCG-NH2; thioether N-13) | 10 to 99.9 nM
15 | CCCC[C@H]1C(=O)N(C)[C@@H](CCCC)C(=O)N[C@@H](CC(C)C)C(=O)N[C@H](C(=O)NCC(N)=O)CSCC(=O)N[C@@H](Cc2ccc(O)cc2)C(=O)N2CCCC[C@H]2C(=O)N[C@@H](CC(=O)O)C(=O)N2CCC[C@H]2C(=O)N[C@@H](CN)C(=O)N[C@@H](CCC(=O)O)C(=O)N2C[C@H](O)C[C@H]2C(=O)N[C@@H](Cc2c[nH]c3ccccc23)C(=O)N[C@@H](CO)C(=O)N[C@@H](Cc2c[nH]c3ccccc23)C(=O)N1C [Example 1272] ({CH2CO}-Y[Pip]DP[Dap]E[Hyp]WSW[NMeNle][NMeNle]LCG-NH2; thioether N-14) | 1 to 9.9 nM
